pIC50: −log10 of the molar value.
What was measured:
[1] = Cyclic voltammetry, oxidation potential; type: physicochemical
SUM-159 = experiment: Cytotoxicity, MTT assay; type: cell-based; conditions: SUM-159 cells, 72 hours
Method: FIG. 5 is a-b) Effect of 6 and 7 on cell viability in TNBC cells treated with the complexes for 72 hours. Mean±s.e.m. n=3. c) Structure of AuDTC-alkyne used for click experiment.
We first evaluated the cytotoxicity of the complexes (6 and 7) in triple-negative breast cancer cells, MDA-MB-468 and SUM-159 using MTT assay.

[2] = Catalytic CuAAC reaction in water (phenylacetylene, benzyl azide), conversion by GC
MDA-MB-468 cells = experiment: Intracellular Cu(I)-catalyzed click chemistry and mitochondria colocalization, confocal microscopy; type: cell-based; conditions: 100 μM catalyst, no THPTA or ascorbate
MDA-MB-468 = experiment: Cytotoxicity, MTT assay; conditions: read-out: IC50 (cytotoxicity), MDA-MB-468 cells, 72 hours
[3] = Stability of the complex to air, moisture and H2O2 (colour, EPR, UV-visible spectroscopy); type: physicochemical; conditions: for Colour change in the presence of air or moisture: over the course of weeks, solid or solution
Method: FIG. 2 illustrates Left: UV-vis absorbance spectra of 3+(CH3CN)4CuPF6 in H2O after 18 hours with 5 molar equivalents of H2O2. Right: UV-vis absorbance spectra after addition of N-methylimidazole to 3+(CH3CN)4CuPF6+5 molar equivalents of H2O2 in H2O after 18 hours incubation.
One of the most important aspects of catalysts for the biologically compatible CuAAC reaction is the ability to perform the reaction while not forming any ROS. Most Cu (I) complexes can be rapidly oxidized by oxygen to Cu (II) and form O2—, one of the first ROS that can then go on to react in myriad ways. […] To further verify this, we performed EPR measurements on solutions of 6 in the absence and presence of H2O2.
We then tested the chemical oxidation of solutions of 7 by UV-visible spectroscopy […]. Increasing amounts of H2O2 were added and the absorption spectrum was measured (FIG. 2).
Without the addition of oxidant, an absorption peak at 280 nm is the lowest energy feature in the spectrum. Aqueous solutions of Cu^2+ ions absorb visible light, typically due to low energy d-d transitions. Therefore, if Cu^2+ was formed, we would expect to observe the appearance of a new absorption in the visible region.

[4] = CH2Cl2, glassy carbon working electrode
[5] = catalyst concentration 20 mM, room temperature, 4 hr, average of two runs

**Q.** What does the source list for “(Cis,cis-1,3,5-cyclohexanetribenzimidazole-1-(2-(2-methoxyethoxy)ethyl)-2-yl)2(Cu(I)PF6)3 [compound 7]”?
**A.** Oxidation wave ([1]; 0.1 M LiClO4 in H2O, Hg/Hg2SO4 reference): did not observe an oxidation wave; Irreversible reduction wave (Cu+/Cu0) ([1]; CH2Cl2): ~0 V vs. SCE; Oxidation wave [1, 4]: 1.85 V vs SCE; pIC50 (SUM-159): < 4.00; Conversion ([2]; 50 mM loading, water, 35° C., 1 hour): 75%; Conversion ([2]; catalyst concentration 0.5 μM, water, 35° C., 18 hr): 33%; Conversion ([2]; catalyst concentration 0.5 μM, water, ambient conditions, 18 hours): 6%; Conversion ([2]; catalyst concentration 1.0 μM, water, 35° C., 18 hr): 64%; Conversion ([2]; catalyst concentration 1 μM, water, ambient conditions, 18 hours): 8%; Conversion ([2]; catalyst concentration 5 μM, water, 35° C., 18 hr): ~88%; Conversion ([2]; catalyst concentration 5 μM, water, ambient conditions, 18 hours): ~13%; Conversion ([2]; catalyst concentration 10 μM, water, 35° C., 18 hr): quantitative; Conversion ([2]; catalyst concentration 10 μM, water, ambient conditions, 18 hours): ~13%; Conversion ([2]; catalyst concentration 50 μM, water, ambient conditions, 18 hours): ~36%; Click reaction between AuDTC-alkyne and azide fluorescein in cells (MDA-MB-468 cells): effectively catalyzed; pIC50 (MDA-MB-468): 4.10; Change of UV-visible absorption spectrum with N-methylimidazole and H2O2 ([3]; in-situ formed 7, five equivalents of H2O2 plus N-methylimidazole): no change in the absorption spectrum; Colour change in the presence of air or moisture [3]: did not change color; Change of UV-visible absorption spectrum with H2O2 ([3]; up to five molar equivalents of peroxide, 18 hours, room temperature): no appreciable change in the absorption spectrum

**Q.** Which Oxidation wave [1, 4] does the source give for `COCCOCCn1c2ccccc2nc1[C@H]1C[C@@H](c2nc3ccccc3n2CCOCCOC)C[C@@H](c2nc3ccccc3n2CCOCCOC)C1` [compound 3, Cis,cis-1,3,5-cyclohexanetribenzimidazole-1-(2-(2-methoxyethoxy)ethyl)-2-yl] here?
**A.** Its Oxidation wave is “irreversible oxidation near the same potential”.

**Q.** And the Conversion [2, 5]?
**A.** The Conversion was “nearly quantitative”.

**Q.** Which Conversion [2, 5] does the source give for `CCCCn1c2ccccc2nc1[C@H]1C[C@@H](c2nc3ccccc3n2CCCC)C[C@@H](c2nc3ccccc3n2CCCC)C1` [compound 2, Cis,cis-1,3,5-cyclohexanetribenzimidazole-1-butyl-2-yl] here?
**A.** Its Conversion is “nearly quantitative”.

**Q.** With “(Cis,cis-1,3,5-cyclohexanetribenzimidazole-1-butyl-2-yl)2(Cu(I)PF6)3 [compound 6]” as the compound, how does the pIC50 (SUM-159) read?
**A.** Its pIC50 is 4.08.

**Q.** What about the Conversion [2, 5] of the same compound?
**A.** Its Conversion is 98%.

**Q.** And the pIC50 (MDA-MB-468)?
**A.** Its pIC50 is 4.33.

**Q.** And the “Colour change in the presence of air or moisture” value [3]?
**A.** The value was “did not change color”.

**Q.** And the “EPR active species (Cu2+) after H2O2 addition” value ([3]; solution, EPR)?
**A.** Its value is “no EPR active species”.

**Q.** With `OCCCn1cc(CN(Cc2cn(CCCO)nn2)Cc2cn(CCCO)nn2)nn1.[Cu]` [THPTA, Cu tris-(hydroxypropyltriazolyl)-methylamine, reference compound] as the compound, how does the pIC50 (MDA-MB-468) read?
**A.** The pIC50 was 4.65.

**Q.** Which Conversion [2, 5] does the source give for `c1ccc2[nH]c([C@H]3C[C@@H](c4nc5ccccc5[nH]4)C[C@@H](c4nc5ccccc5[nH]4)C3)nc2c1` [compound 1, Cis,cis-1,3,5-cyclohexanetribenzimidazole-2-yl] here?
**A.** Its Conversion is ~18%.

Source: patent US20250002465A1, “TRIMERIC COPPER CATALYSTS, INTERMEDIATES FOR MAKING SUCH CATALYSTS AND METHOD FOR PREPARING A CYCLOADDITION COMPOUND” (University of Kentucky Research Foundation, priority 2023, published 2025)
